Experimental data from patent US7671023B2 (Amylin Pharmaceuticals, Inc., priority 2005, dated 2010).

Columns and labels:
[1] = test system: test animals; experiment: amylin activity in vivo in treated test animals (hyperlactemia followed by hyperglycemia); details: e.g., provoking marked hyperlactemia followed by hyperglycemia
[2] = test system: mice; experiment: marble burying; type: in vivo, mouse; details: for reduction in marble burying, statistical significance: amylin at 10 mg/kg, buspirone at 20 mg/kg, P<0.05; for number of marbles buried in 30 minutes: injected 15-30 minutes prior to test, rat amylin 0.1, 1.0 or 10 mg/kg, buspirone 20/kg, FIG. 3
Protocol: (§1) These specific behavioral tests are known to be sensitive to anxiolytic, antidepressant, or antipsychotic drugs.
Marble burying is used as a model for both anxiety and obsessive-compulsive disorder. See, for example, Chaki et al. (2003) J. Pharmacol. Exp. Ther. 304:818-826. Anxiolytics suppress marble burying activity. […] Mice were then placed individually in clean cages containing 5-cm of hard wood bedding and 20 marbles spaced evenly in rows of five. The number of marbles buried in 30 minutes was recorded. […] Buspirone is a partial 5-HT1A agonist and an known anxiolytic agent.

[3] = test system: mice; experiment: prepulse inhibition (PPI) test; type: in vivo, mouse; details: amylin at 10 mg/kg; haloperidol 1 mg/kg; all prepulse levels tested (74, 78, and 82 dB); 120 dB stimulus; FIG. 5
Source text: as §1
The prepulse inhibition (PPI) test measures the reflex response to externally applied auditory stimulation (acoustic startle response) and is related to the deficiency in sensory-motor gating capacity seen in schizophrenia. The acoustic startle reflex is a very basic response to strong exteroceptive stimuli and is widely used to assess sensorimotor reactivity in animals and humans. A weak auditory stimulus (prepulse, 74-82 dB) given prior to the strong acoustic stimulus (120 dB) blunts the startle response. This blunting of the startle response is referred to as prepulse inhibition. […] Antipsychotics increase the ability of the prepulse stimulus to blunt the startle response to the strong stimulus. Some psychotomimetic agents, such as phencyclidine (PCP) and ketamine, can actually reduce the percent prepulse inhibition and stimulate a psychotic-like state in animals, which can be antagonized by antipsychotic agents.
The mice were placed into an animal holder and the holder placed onto a transducer platform in an acoustic chamber. A weak auditory stimulus (prepulse) of 74, 78 and 82 dB was given prior to the strong acoustic stimulus (120 dB). The amount of the animal's “reaction” to the strong stimulus was recorded. […]

[4] = test system: mice; experiment: phencyclidine (PCP)-induced locomotion test; type: in vivo, mouse
Source text: as §1
The PCP-induced locomotion test is used with the open field activity chambers and measures locomotion, rearing, and stereotypic activity under amphetamine/PCP-induced conditions. The test has predictive validity for some antipsychotic drugs that normalize the hyperactivity and stereotypic behavior seen with amphetamine and PCP. See, for example, Williams et al. (2006) Prog. Neuropsychopharmacol. Biol. Psychiatry 30:239-243. […] The animals were then placed in the center of an open field and activity was recorded for 60 minutes. […] CZP is an atypical, second generation antipsychotic drug has a mixed receptor profile, including the dopamine receptor.

[5] = test system: Adult, male Sprague-Dawley rats; experiment: weight gain induced by clozapine; type: in vivo; details: rat amylin 10 μg/kg/day co-administered with clozapine […], osmotic pump, 4 weeks; FIG. 7B
[6] = test system: mice; experiment: stress-induced hyperthermia (SIH) assay; type: in vivo, mouse
Source text: as §1
Body temperature and emotional state are closely related in humans, and stress-induced hyperthermia (SIH) in mice is considered to have predictive validity for certain human anxiety/stress disorders. The SIH assay assesses the effect of anxiolytics or test agents on stress-induced hyperthermia and measures the intrinsic effects of these drugs on core body temperature of the animal. See, for example, Zethof et al. (1994) Physiol. Behav. […] Anxiolytics blunt the increase in body temperature, or hyperthermic response, following stress exposure. […] Mice were subjected to two sequential rectal temperature measurements ten minutes apart. The stress from the first measurement induces hyperthermia which was measured by the second temperature measurement. The difference between the two temperatures (ΔT) was the stress-induced hyperthermia.

[7] = test system: mice; experiment: forced swim test (FST); type: in vivo, mouse; details: delivered continuously for two weeks by subcutaneous osmotic pumps; 5 minute trial session; FIG. 4
Source text: as §1
The forced swim test (FST) is a commonly used paradigm to evaluate antidepressant activity of drugs. This test is based on measurement of the animal's floating time in a tank filled with water. When rats or mice are forced to swim in a deep cylinder with tepid water they become nearly immobile and cease trying to escape. This characteristic immobile posture is thought to reflect a depressive-like state and is readily influenced by a wide variety of antidepressants. See, for example, Hédou et al. (2001) Pharmacol., Biochem. Behav. […] Antidepressants decrease the immobility time in the FST. Rat amylin or vehicle was delivered continuously for two weeks to mice by subcutaneously implanted osmotic pumps prior to the FST. On day one, the mice were placed in the water tank for a 15 minute pre-swim session. On day two, the mice were placed back into the water tank for assessment of climbing, swimming, and immobility over a 5 minute trial session.

[8] = test system: Male, Sprague-Dawley rats; experiment: sugar withdrawal paradigm with restraint stress (stress-induced feeding); type: in vivo; details: rat amylin 300 μg/kg/d by osmotic pump
Protocol: Male, Sprague-Dawley® rats were submitted to a sugar withdrawal paradigm and observed for effects of stress on sugar intake. […] All rats were provided with ad libitum access to standard chow, water, and a 30% sucrose drink. Subsequently, the sucrose drink was removed and half of the rats were subjected, daily, to 3 h of mild restraint stress for 3 successive days. After 3 days, sucrose was provided and its daily average consumption was measured over 4 days. Chow intake was also measured over the 3 days of withdrawal and stress and over the following 4 days when sucrose was re-introduced. No restraint was applied during the 4 days of sucrose re-introduction. Results of this assay are shown in FIG. 1 where * is P<0.05 by ANOVA and Fisher LSD post-hoc analyses.

## CC[C@H](C)[C@H](NC(=O)[C@@H]1CCCN1C(=O)CNC(=O)[C@H](Cc1ccccc1)NC(=O)[C@H](CC(N)=O)NC(=O)[C@H](CC(N)=O)NC(=O)[C@H](CO)NC(=O)[C@H](CO)NC(=O)[C@H](Cc1c[nH]cn1)NC(=O)[C@@H](NC(=O)[C@H](CC(C)C)NC(=O)[C@H](Cc1ccccc1)NC(=O)[C@H](CC(N)=O)NC(=O)[C@H](C)NC(=O)[C@H](CC(C)C)NC(=O)[C@H](CCCNC(=N)N)NC(=O)[C@H](CCC(N)=O)NC(=O)[C@@H](NC(=O)[C@H](C)NC(=O)[C@@H]1CSSC[C@H](NC(=O)[C@@H](N)CCCCN)C(=O)N[C@@H](CC(N)=O)C(=O)N[C@@H]([C@@H](C)O)C(=O)N[C@@H](C)C(=O)N[C@@H]([C@@H](C)O)C(=O)N1)[C@@H](C)O)C(C)C)C(=O)N[C@@H](CC(C)C)C(=O)N1CCC[C@H]1C(=O)N1CCC[C@H]1C(=O)N[C@H](C(=O)N[C@@H](CC(N)=O)C(=O)N[C@H](C(=O)NCC(=O)N[C@@H](CO)C(=O)N[C@@H](CC(N)=O)C(=O)N[C@H](C(=O)N[C@@H](Cc1ccc(O)cc1)C(N)=O)[C@@H](C)O)C(C)C)[C@@H](C)O [^25,28,29Pro-h-amylin, reference compound]
[1]
  amylin activity in vivo: show amylin activity in vivo

## O=C1CC2(CCCC2)CC(=O)N1CCCCN1CCN(c2ncccn2)CC1 [buspirone, reference compound]
[2]
  reduction in marble burying, statistical significance: statistically significant
  number of marbles buried in 30 minutes: reduced the number of marbles buried

## O=C(CCCN1CCC(O)(c2ccc(Cl)cc2)CC1)c1ccc(F)cc1 [halperidol, haloperidol, reference compound]
[3]
  percent of prepulse inhibition: significantly increased the percent of prepulse inhibition

## KCNTATCATQRLANFLVRSSNNLGPVLPPTNVGSNTY (listed as Rattus sp.) [rat amylin, 37-amino acid polypeptide hormone; rat species variant of amylin]
[3]
  percent of prepulse inhibition: significantly increased the percent of prepulse inhibition
[4]; agent alone, without PCP
  baseline activity: did not affect baseline activity
[4]; open field, with and without 5 mg/kg PCP
  rearing activity and PCP-induced rearing activity: reduced rearing activity and PCP-induced rearing activity
[4]; rat amylin 0.1, 1.0 or 10 mg/kg or 3 mg/kg clozapine 15-30 minutes prior to 5 mg/kg PCP, total, central, and peripheral, 60 minutes, FIG. 6
  total distance traveled: significantly reduced the total distance traveled
[5]
  weight gain observed with clozapine alone: prevented the weight gain
[6]; acute, 60 minutes before the assay, rat amylin 0.1, 1.0 or 10 mg/kg, chlordiazepoxide 10 mg/kg, FIG. 2
  SIH response (ΔT): blunted the SIH response
[6]; subcutaneously implanted pumps, amylin 300 μg/kg/d, CDP 10 mg/kg/d, at both 1 week and 4 weeks of administration
  SIH response (ΔT), chronic infusion: significantly blunted the SIH response
[7]
  time spent in the immobile state: significantly reduced the time spent in the immobile state
[2]
  reduction in marble burying, statistical significance: statistically significant
  number of marbles buried in 30 minutes: reduced the number of marbles buried
[8]; 3 h mild restraint stress daily for 3 days, sucrose intake over following 4 days, FIG. 1A
  average sucrose to chow consumption ratio (as % of baseline): prevents the increase in the average sucrose to chow consumption ratio
[8]; restraint stress, FIG. 1B
  chow consumption (stress-induced decrease): protects against this behavioral response to stress

## ^28Pro-h-amylin (KCNTATCATQRLANFLVHSSNNFGAILPSTNVGSNTY)
[1]
  amylin activity in vivo: show amylin activity in vivo

## des-^1Lys-h-amylin (CNTATCATQRLANFLVHSSNNFGAILSSTNVGSNTY)
[1]
  amylin activity in vivo: show amylin activity in vivo

## des-^1Lys^18Arg^25,28Pro-h-amylin (CNTATCATQRLANFLVRSSNNFGPILPSTNVGSNTY)
[1]
  amylin activity in vivo: show amylin activity in vivo
